One series has as its system 2×GRE reporter. In words: Modulation of dexamethasone/NR3C1 ligand-induced 2×GRE reporter activation (kinase inhibitors, TNF, formoterol) in BEAS-2B cells. Format: cell-based, human. The conditions noted are these: for Effect on dexamethasone-induced 2×GRE reporter activation (concentration-response): 30 min pre-treatment, 6 h (Fig. 3B, Fig. 4), JNK inhibitor VIII only at 30 μM, PKC inhibitors above 1 μM; for Effect on dexamethasone-induced 2×GRE reporter activation: 10 μM inhibitor 30 min pre-treatment, 6 h (Fig. 3A). The method, then: (§1) BEAS-2B cells stably transfected with a glucocorticoid response element (2×GRE) driven luciferase reporter plasmid, pGL3.neo.TATA.neo [23], were cultured in medium containing 0.25 mg/ml G-418 (Promega, Madison, WI). Cells were grown to confluence in 24 or 48 well plates and incubated overnight in serum-free media prior to experiments. Cells were harvested in reporter lysis buffer and luciferase assays performed according to the manufacturer’s instructions (Firefly Luciferase Assay Kit; Biotium; Hayward, CA) using a 20/20n luminometer (Promega).
Data (n = 7), expressed as a percentage of Dex activation, are plotted as means ± S.E. BEAS-2B 2×GRE cells were pre-treated for 30 min with the indicated concentrations of B. PS or JNK or C. JNK in the presence or absence of 10 μM PS, before addition of 10 ng/ml TNF. After 1 h, 10 μM Dex was added and cells harvested 6 h later for luciferase assay. […] D+T indicates Dex plus TNF treatment.
Data (n = 3–4), expressed as fold activation, are plotted as means ± S.E. D+T indicates Dex plus TNF treatment.
(§2) Cells were harvested after 6 h for luciferase assays. Data (n = 7), expressed as fold activation, are plotted as means ± S.E. Lines of best fit were added in panel B. Statistical analyses were performed by ANOVA with a Dunnett’s test comparing each NR3C1 ligand alone versus in the presence of TNF and/or Form. *, P<0.05; **, P<0.01; ***, P<0.001.

For another series, the system named is AKT1 phosphorylation. In words: Western blot of AKT1 phosphorylation in BEAS-2B cells. The following applies: Homo sapiens, 30 min pre-treatment, TNF 10 ng/ml 30 min, western blot (S2 Fig.), read-out: EC50 for block of AKT1 phosphorylation. Format: cell-based. The source says:
Cells were lysed in 1× Laemmli buffer supplemented with phosphatase inhibitors (Sigma-Aldrich) and 1× complete protease inhibitor cocktail (Roche; Indianapolis, IN), size fractionated on 12% acrylamide gels and subsequently electro-transferred onto Hybond enhanced chemiluminescent membranes (GE Healthcare; Waukesha, WI). Membranes were blocked in 5% milk in tris-buffered saline containing 1% tween 20 and probed with antibodies against phospho-jun proto-oncogene (pJUN; pc-Jun) (9164; Cell Signaling Technology; Danvers, MA), nuclear factor of kappa light polypeptide gene enhancer in B-cells inhibitor, alpha (NFKBIA; IκBα) (sc-371; Santa Cruz Biotechnology; Dallas, TX), phospho-NFKBIA (9246; Cell Signaling Technology), phospho-AKT1 (9271S; Cell Signaling Technology), AKT (9272S; Cell Signaling Technology) and GAPDH (4699–9555(ST); AbD Serotec; Raleigh, NC). After washing, membranes were incubated with horseradish peroxidase-conjugated anti-rabbit (111–035–003; Jackson ImmunoResearch Laboratories Inc; West Grove, PA) or anti-mouse immunoglobulin (115–035–003; Jackson ImmunoResearch Laboratories Inc). Detection was by enhanced chemiluminescence (Pierce ECL Western Blotting Substrate; Thermo Fisher Scientific Inc.; Rockford, IL) and visualization by autoradiography.
Cells were harvested after 30 min for western blotting and probed for phospho v-akt murine thymoma viral oncogene homolog 1 (pAKT1), AKT1 and glyceraldehyde 3-phosphate dehydrogenase (GAPDH). (PDF) Click here for additional data file.

For series [1], the target named is T1, glucocorticoid receptor (NR3C1) (Homo sapiens, UniProt P04150).
T1 construct: BEAS-2B cells stably transfected with a glucocorticoid response element (2×GRE) driven luciferase reporter plasmid; endogenous in cells; host or cells: BEAS-2B human bronchial epithelial cells stably carrying a 2×GRE luciferase reporter
T1 sequence (P04150 1-777): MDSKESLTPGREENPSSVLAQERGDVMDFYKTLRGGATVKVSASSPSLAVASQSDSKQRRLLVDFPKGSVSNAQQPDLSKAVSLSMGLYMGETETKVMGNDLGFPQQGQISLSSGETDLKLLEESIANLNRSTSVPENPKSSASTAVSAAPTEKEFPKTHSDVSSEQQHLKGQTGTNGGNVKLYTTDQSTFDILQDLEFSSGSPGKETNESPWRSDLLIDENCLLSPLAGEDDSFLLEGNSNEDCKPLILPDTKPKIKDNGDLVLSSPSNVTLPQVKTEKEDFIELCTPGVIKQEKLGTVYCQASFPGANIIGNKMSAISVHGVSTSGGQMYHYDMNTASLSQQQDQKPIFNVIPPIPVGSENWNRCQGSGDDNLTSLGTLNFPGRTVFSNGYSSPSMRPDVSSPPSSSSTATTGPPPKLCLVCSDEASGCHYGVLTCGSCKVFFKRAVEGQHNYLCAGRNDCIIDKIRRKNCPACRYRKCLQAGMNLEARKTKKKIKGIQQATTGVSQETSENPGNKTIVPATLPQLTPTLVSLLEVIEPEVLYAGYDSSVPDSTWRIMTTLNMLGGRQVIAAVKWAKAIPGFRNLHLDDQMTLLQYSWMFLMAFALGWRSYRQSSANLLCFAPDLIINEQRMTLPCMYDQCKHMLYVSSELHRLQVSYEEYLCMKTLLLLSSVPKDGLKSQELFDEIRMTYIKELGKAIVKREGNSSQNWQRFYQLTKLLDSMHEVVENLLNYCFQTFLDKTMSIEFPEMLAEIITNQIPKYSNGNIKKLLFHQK
The experiment in a line: 2×GRE luciferase reporter activation by NR3C1 ligands in BEAS-2B cells. Format: cell-based. The conditions noted are these: for EC50: pEC50 (M). The method, then:
as §1
Cells were harvested 6 h after NR3C1 ligand addition for luciferase assay.
as §2

Series [2] deals with CDKN1C, DUSP1, RGS2 and TSC22D3 mRNA in BEAS-2B cells. The experiment in a line: RT-PCR of glucocorticoid-inducible gene expression in BEAS-2B cells.
Experimental: Cells were harvested 6 h after Dex addition.
BEAS-2B cells were pre-treated for 30 min with either 10 or 3 μM of the JNK MAPK inhibitor JNK inhibitor VIII (JNK) or 10 μM of the IKK2 inhibitor PS-1145 (PS), before addition of 10 ng/ml tumor necrosis factor-α (TNF).
Cells were harvested 6 h after NR3C1 ligand addition.
Series [3] relates to TSC22D3 mRNA in primary HBE cells. In words: RT-PCR of dexamethasone-inducible gene expression in primary human bronchial epithelial (HBE) cells. Format: cell-based. The following applies: TNF 10 ng/ml (at 1 h) or IL1B 1 ng/ml (at 18 h), 1 μM dexamethasone.
Series [4] relates to TSC22D3 mRNA in primary ASM cells. In words: RT-PCR of dexamethasone-inducible gene expression in primary human airway smooth muscle (ASM) cells. Format: cell-based. The conditions noted are these: TNF 10 ng/ml or IL1B 1 ng/ml, 1 μM dexamethasone, 6 h.
Setting [5] is: BEAS-2B 2×GRE reporter, TNF 10 ng/ml pre-treatment 1 h, 6 h, percent of 1 μM dexamethasone.
[6] abbreviates: BEAS-2B 2×GRE reporter, no TNF, 6 h, percent of 1 μM dexamethasone.
Where [7] appears, read: 100 nM ligand, 10 nM formoterol, 6 h (Fig. 8).
[8] abbreviates: BEAS-2B 2×GRE reporter, TNF 10 ng/ml pre-treatment 1 h, 6 h.
The mark [9] stands for this setting: BEAS-2B 2×GRE reporter, no TNF, 6 h.

From paper PMC4308083, “Cytokine-Induced Loss of Glucocorticoid Function: Effect of Kinase Inhibitors, Long-Acting β2-Adrenoceptor Agonist and Glucocorticoid Receptor Ligands” (PLoS ONE, 2015) come the findings set out here.

Like-named read-outs stand apart in the source and are kept apart here.

In the case of `O=c1cc(N2CCOCC2)oc2c(-c3ccccc3)cccc12` [LY294002, 2-(4-morpholinyl)-8-phenyl-4H-1-benzopyran-4-one], the “Effect on dexamethasone-induced 2×GRE reporter activation (concentration-response)” value (“Effect … (concentration-response)” for short) in the series on 2×GRE reporter was “less effect”. Besides, the concentration for a half-maximal effect (EC50) in the series with AKT1 phosphorylation was about 900 nM.

In the case of `CCC(=O)O[C@]1(C(=O)SCF)[C@H](C)C[C@H]2[C@@H]3C[C@H](F)C4=CC(=O)C=C[C@]4(C)[C@@]3(F)[C@@H](O)C[C@@]21C` [Fluticasone Propionate], the “E max (% Dex), +TNF” value in series [1] (setting [5]) was 51.0 ± 2.8 % Dex. In addition, the “E max (% Dex), Naive” value in series [1] (setting [6]) came out at 111.2 ± 4.3 % Dex.

For `C[C@]12C=CC(=O)C=C1CC[C@@H]1[C@@H]2[C@@H](O)C[C@@]2(C)[C@H]1C[C@H]1O[C@@H](C3CCCCC3)O[C@]12C(=O)CO` [Des-ciclesonide], the “Agonist type on 2×GRE reporter relative to dexamethasone” value in series [1] (BEAS-2B 2×GRE reporter) is reported as “partial agonists”. Also, in series [1] (setting [5]), the “E max (% Dex), +TNF” value stood at 43.1 ± 1.0 % Dex. In series [1] (setting [6]), the “E max (% Dex), Naive” value is 76.0 ± 2.0 % Dex. Moreover, the EC50 in series [1] (+TNF, BEAS-2B 2×GRE reporter, TNF 10 ng/ml pre-treatment 1 h, 6 h) was 3.16e-09 M; in series [1] (Naive, BEAS-2B 2×GRE reporter, no TNF, 6 h), 2.51e-09 M. In series [2] (setting [7]), the “RGS2 mRNA expression in the presence of formoterol relative to dexamethasone” value is “significantly lower”. Further, the “TSC22D3 mRNA fold induction” value in series [2] (6 h, 1 μM dexamethasone, 100 nM other ligands (Fig. 8, n = 5)) was 71 fold.

With `Cn1cc(C2=C(c3cn(CCCSC(=N)N)c4ccccc34)C(=O)NC2=O)c2ccccc21` [Ro 31–8220], the “Effect … (concentration-response)” value in the series with 2×GRE reporter is on record as “reduced”.

Consider `CN(C)CCCn1cc(C2=C(c3c[nH]c4ccccc34)C(=O)NC2=O)c2ccccc21` [GF109203X], for which the “Effect … (concentration-response)” value with 2×GRE reporter is given as “enhanced”.

Turning to `C[C@@H]1C[C@H]2[C@@H]3C[C@H](F)C4=CC(=O)C=C[C@]4(C)[C@@]3(F)[C@@H](O)C[C@]2(C)[C@@]1(OC(=O)C1C(C)(C)C1(C)C)C(=O)OCC#N` [GW870086X], the “Agonist type on 2×GRE reporter relative to dexamethasone” value in series [1] (BEAS-2B 2×GRE reporter) is on record as “partial agonists”. Moreover, in series [1] (setting [8]), the “pEC50 (M), +TNF” value is recorded as 8.0 ± 0.2 * M. Also, in series [1] (setting [5]), the “E max (% Dex), +TNF” value was 29.8 ± 1.4 % Dex. Besides, the “pEC50 (M), Naive” value in series [1] (setting [9]) is listed as 8.3 ± 0.1 M. In addition, the “E max (% Dex), Naive” value in series [1] (setting [6]) was 50.1 ± 1.1 % Dex. Further, in series [2] (setting [7]), the “RGS2 mRNA expression in the presence of formoterol relative to dexamethasone” value is listed as “significantly lower” and the “TSC22D3 mRNA expression in the presence of formoterol, or TNF plus formoterol, relative to dexamethasone” value is given as “significantly lower”.

Take `COC[C@H]1OC(=O)c2coc3c2[C@@]1(C)C1=C(C3=O)[C@@H]2CCC(=O)[C@@]2(C)C[C@H]1OC(C)=O` [wortmannin]: in the series with 2×GRE reporter, the “Effect … (concentration-response)” value was “concentration-dependently reduced”. The EC50 in the series on AKT1 phosphorylation is about 20 nM.

`C[C@@H]1C[C@H]2[C@@H]3CCC4=CC(=O)C=C[C@]4(C)[C@@]3(F)[C@@H](O)C[C@]2(C)[C@H]1C(=O)CC#N` [RU24858]: the “Agonist type on 2×GRE reporter relative to dexamethasone” value in series [1] (BEAS-2B 2×GRE reporter) is on record as “partial agonists”. The “pEC50 (M), +TNF” value in series [1] (setting [8]) is given as 7.3 ± 0.0 * M. Moreover, the “E max (% Dex), +TNF” value in series [1] (setting [5]) is recorded as 46.0 ± 0.8 % Dex. In addition, the “pEC50 (M), Naive” value in series [1] (setting [9]) was 7.4 ± 0.0 M. In series [1] (setting [6]), the “E max (% Dex), Naive” value is recorded as 74.9 ± 1.1 % Dex.

For the molecule `Cn1c2ccccc2c2c3c(c4c5ccccc5n(CCC#N)c4c21)CNC3=O` [Gö6976], in the series on 2×GRE reporter, the “Effect … (concentration-response)” value was “reduced”.

Turning to `COc1cccc(-c2cc(=O)c3ccccc3o2)c1N` [PD098059], the “Effect on dexamethasone-induced 2×GRE reporter activation” value with 2×GRE reporter was “significantly reduced”.

Consider `Oc1cccc(-c2nc(N3CCOCC3)c3oc4ncccc4c3n2)c1` [PI103], for which the “Effect … (concentration-response)” value in the series with 2×GRE reporter is recorded as “concentration-dependently reduced”. For the same molecule, the EC50 with AKT1 phosphorylation was about 70 nM.

As to “IL1B: pro-inflammatory cytokine interleukin-1β (R&D systems), used at 1 ng/ml”, in series [3], the “Maximal repression of dexamethasone-induced TSC22D3 expression” value came out at 62%. In addition, the “Repression of dexamethasone-induced TSC22D3 expression” value in series [4] is 43%.

Take `C[C@@H]1C[C@H]2[C@@H]3CCC4=CC(=O)C=C[C@]4(C)[C@@]3(F)[C@@H](O)C[C@]2(C)[C@@]1(O)C(=O)CO` [Dexamethasone]: the “E max (% Dex), +TNF” value in series [1] (setting [5]) was 58.7 ± 3.2 % Dex. Moreover, the “E max (% Dex), Naive” value in series [1] (setting [6]) amounted to 100 ± 3.2 % Dex.

GSK9027: the “Agonist type on 2×GRE reporter relative to dexamethasone” value in series [1] (BEAS-2B 2×GRE reporter) is “partial agonists”. In addition, the “pEC50 (M), +TNF” value in series [1] (setting [8]) is 7.0 ± 0.1 M. Further, the “E max (% Dex), +TNF” value in series [1] (setting [5]) is 40.7 ± 0.9 % Dex. Also, the “pEC50 (M), Naive” value in series [1] (setting [9]) was found to be 7.1 ± 0.0 M. Further, in series [1] (setting [6]), the “E max (% Dex), Naive” value amounted to 77.2 ± 1.0 % Dex.

Take `CCCC1O[C@@H]2C[C@H]3[C@@H]4CCC5=CC(=O)C=C[C@]5(C)[C@H]4[C@@H](O)C[C@]3(C)[C@]2(C(=O)CO)O1` (stereo partly drawn) [Budesonide]: in series [1], the “E max (% Dex), Naive” value amounted to 109.9 ± 2.6 % Dex.

Consider `C[S+]([O-])c1ccc(-c2nc(-c3ccncc3)c(-c3ccc(F)cc3)[nH]2)cc1` (stereo not drawn) [SB203580], for which, in the series on 2×GRE reporter, the “Effect on dexamethasone-induced 2×GRE reporter activation” value was “no effect”.
